# Measured values from patent publication US10231980B2, “Cortexolone 17alpha-benzoate for use in the treatment of tumours” (COSMO TECHNOLOGIES LTD., priority 2014, dated 2019).
# Where two headings read alike, the source gives them in different places.
# Columns and labels:
# 7 cancer cell lines = experiment: Therapeutic index over a panel of cancer cell lines; type: cell-based; conditions: average over the cancer cell lines of Table VII
# Procedure: (§1) The compound toxicity was determined as follow:
# (§2) Therapeutic Index=Safety/Potency=IC50 stimulated PBMC/IC50 cancer cell
# PC3 (AR−) = experiment: ATP-dependent proliferation assay with 10 nM DHT, prostate cancer cells (Examples 1, 2); type: cell-based, human; conditions: PC3, read-out: IC50
# Procedure: (§3) The experiment was performed to test and to define the antitumor activity in vitro of cortexolone 17α-benzoate on LNCaP (AR^+) and PC3 (AR^−), representative of Prostatic cancer cell lines with Androgen receptor positive or negative expression, respectively. The experimental method consisted of: • 1. […] After 24 hrs, 10 nM DHT (dihydrotestosterone) with or without anti-androgen compounds, or DMSO vehicle (negative control) was added to the cultures. • 3.
# (§4) Data from Experiment 1 was fitted through sigmoidal dose response curves and analyzed using Prizm statistical analysis software. […] The results from 2 sets of experiments follow.
# as §3, with “define” for “define the”, “17α-valerate-21-propionate” for “17α-benzoate”, “hours,” for “hrs,”
# LNCaP (AR+) = experiment: as above; type: cell-based, human; conditions: LNCaP, read-out: IC50
# Procedure: as §3, §4
# as §3, with “define” for “define the”, “17α-valerate-21-propionate” for “17α-benzoate”, “hours,” for “hrs,”
# HT29 = experiment: MTT colorimetric assay on epithelial intestinal cancer cells; type: cell-based; conditions: for Therapeutic Index (TI), Resting PBMC: IC50 resting PBMC / IC50 HT29; for Therapeutic Index (TI), Stimulated PBMC: IC50 stimulated PBMC / IC50 HT29
# BxPC3 = experiment: In vitro proliferation, larger panel (Example 14); conditions: BxPC3
# Description: (§5) Data shown in Table I were fitted through sigmoidal dose response curves and analyzed using Prizm statistical.
# Panc1 (AR+) = experiment: ATP-dependent proliferation assay with 10 nM DHT, pancreatic cancer cells (Examples 3, 4, 7); conditions: for TI on Resting PBMC: IC50 resting PBMC / IC50 Panc1; for TI on Stimulated PBMC: IC50 stimulated PBMC / IC50 Panc1; for IC50: Panc1
# Procedure: (§6) The experimental method consisted of: • 1. […] After 24 hrs, 10 nM DHT (dihydrotestosterone) with or without anti-androgen compounds, or DMSO vehicle (negative control) was added to the cultures. • 3.
# (§7) Data from Experiment 1 were fitted through sigmoidal dose response curves and analyzed using Prizm statistical analysis software. […] The results from 2 sets of experiments follow.
# (§8) Data from Experiment 1 was fitted through sigmoidal dose response curves and analyzed using Prizm statistical analysis software.
# MiaPaca2 (AR low) = experiment: as above; conditions: for TI on Resting PBMC: IC50 resting PBMC / IC50 MiaPaca2; for TI on Stimulated PBMC: IC50 stimulated PBMC / IC50 MiaPaca2; for IC50: MiaPaca2
# Procedure: as §6, §7, §8
# resting PBMC = experiment: IC50 on resting (quiescent) PBMC; type: cell-based, human; conditions: read-out: IC50 on Resting PBMC
# Procedure: The IC50 in PBMCs were tested in 2 different activation status: • stimulated—actively dividing cells • resting—quiescent, non-dividing cells
# The IC50 in PBMCs were tested in 2 different activation status: • Stimulated—actively dividing cells • Resting—quiescent, non-dividing cells.
# IC50 of the compounds was determined on fresh cells isolated from human blood (PBMC).
# LNCaP = experiment: ATP-dependent cell viability assay (Cell Titer Glo), Example 12; conditions: LNCaP
# Description: as §5
# PC3 = experiment: as above; conditions: PC3
# Description: as §5
# MiaPaca2 = experiment: as above; conditions: MiaPaca2
# Description: as §5
# Panc1 = experiment: as above; conditions: Panc1
# Description: as §5
# MCF7 = experiment: In vitro proliferation / cytotoxic assay on breast cancer cells (Examples 14, 25); conditions: MCF7
# stimulated PBMC [1] = experiment: IC50 on stimulated (actively dividing) PBMC; type: cell-based, human; conditions: PBMC Stim; Table IV
# stimulated PBMC [2] = experiment: IC50 on stimulated (actively dividing) PBMC; type: cell-based, human
# Procedure: as §1, §2
# [3] = Experiment 1, sigmoidal dose response fit, 10 nM DHT, 3 days
# [4] = Experiment 2, nonlinear regression least squares fit, additional experiments
# [5] = read-out: In vitro proliferation IC50, Table IV
# [6] = Experiment 1, 0 = higher toxicity in PBMC
# [7] = Tables I and II, titrated 3 uM to 200 uM, 3 days
compound,measurement,setting,value
"CCCCC(=O)O[C@]1(C(=O)COC(=O)CC)CC[C@H]2[C@@H]3CCC4=CC(=O)CC[C@]4(C)[C@H]3CC[C@@]21C [CB-03-10, cortexolone 17α-valerate-21-propionate]","Therapeutic Index = IC50 stimulated PBMC/IC50 cancer cell, AVERAGE",7 cancer cell lines,4
same,IC50,PC3 (AR−); [3],55 µM
same,IC50,PC3 (AR−); [4],50 µM
same,IC50,LNCaP (AR+); [3],13 µM
same,IC50,LNCaP (AR+); [4],10 µM
same,Inhibition (%) on HT29,"HT29; 0.8 micromolar, 72 h",0.44%
same,Inhibition (%) on HT29,"HT29; 4 micromolar, 72 h",14.23%
same,Inhibition (%) on HT29,"HT29; 20 micromolar, 72 h",25.49%
same,Inhibition (%) on HT29,"HT29; 100 micromolar, 72 h",89.77%
same,Inhibition (%) on HT29,"HT29; 500 micromolar, 72 h",92.10%
same,IC50,"HT29; HT29, MTT, 72 h, read-out: IC50 Calculated",34.2 µM
same,Therapeutic Index = IC50 resting PBMC/IC50 cancer cell,"HT29; HT29, Table IV",3
same,IC50,"HT29; HT29, Table IV, read-out: In vitro proliferation IC50",34 µM
same,Therapeutic Index = IC50 stimulated PBMC/IC50 cancer cell,"HT29; HT29, Table VII",3
same,"Therapeutic Index (TI), Resting PBMC",HT29; Experiment 1,3
same,"Therapeutic Index (TI), Resting PBMC",HT29; Experiment 2,4
same,"Therapeutic Index (TI), Stimulated PBMC",HT29; Experiment 1,3
same,"Therapeutic Index (TI), Stimulated PBMC",HT29; Experiment 2,3
same,Therapeutic Index = IC50 resting PBMC/IC50 cancer cell,BxPC3; Table IV,3
same,Therapeutic Index = IC50 stimulated PBMC/IC50 cancer cell,BxPC3; Table VII,3
same,IC50,BxPC3; [5],30 µM
same,TI on Resting PBMC,Panc1 (AR+); [6],2
same,TI on Resting PBMC,Panc1 (AR+); Experiment 2,2
same,TI on Stimulated PBMC,Panc1 (AR+); [6],2
same,TI on Stimulated PBMC,Panc1 (AR+); Experiment 2,2
same,IC50,"Panc1 (AR+); Example 7, Experiment 1",68 µM
same,IC50,"Panc1 (AR+); Example 7, Experiment 2",60 µM
same,IC50,Panc1 (AR+); [3],66 µM
same,IC50,Panc1 (AR+); [4],60 µM
same,TI on Resting PBMC,MiaPaca2 (AR low); [6],3
same,TI on Resting PBMC,MiaPaca2 (AR low); Experiment 2,3
same,TI on Stimulated PBMC,MiaPaca2 (AR low); [6],3
same,TI on Stimulated PBMC,MiaPaca2 (AR low); Experiment 2,3
same,IC50,"MiaPaca2 (AR low); Example 7, Experiment 1",34 µM
same,IC50,"MiaPaca2 (AR low); Example 7, Experiment 2",37 µM
same,IC50,MiaPaca2 (AR low); [3],43 µM
same,IC50,MiaPaca2 (AR low); [4],37 µM
same,IC50,"resting PBMC; Example 7, Experiment 1",114 µM
same,IC50,"resting PBMC; Example 7, Experiment 2",120 µM
same,Therapeutic Index = IC50 resting PBMC/IC50 cancer cell,LNCaP; Table IV,9
same,Therapeutic Index = IC50 stimulated PBMC/IC50 cancer cell,LNCaP; Table VII,9
same,IC50,LNCaP; [7],10 µM
same,IC50,LNCaP; [5],10 µM
same,Therapeutic Index = IC50 resting PBMC/IC50 cancer cell,PC3; Table IV,2
same,Therapeutic Index = IC50 stimulated PBMC/IC50 cancer cell,PC3; Table VII,2
same,IC50,PC3; [7],53 µM
same,IC50,PC3; [5],53 µM
same,Therapeutic Index = IC50 resting PBMC/IC50 cancer cell,MiaPaca2; Table IV,3
same,Therapeutic Index = IC50 stimulated PBMC/IC50 cancer cell,MiaPaca2; Table VII,3
same,IC50,MiaPaca2; [7],37 µM
same,IC50,MiaPaca2; [5],37 µM
same,Therapeutic Index = IC50 resting PBMC/IC50 cancer cell,Panc1; Table IV,2
same,Therapeutic Index = IC50 stimulated PBMC/IC50 cancer cell,Panc1; Table VII,2
same,IC50,Panc1; [7],60 µM
same,IC50,Panc1; [5],60 µM
same,Therapeutic Index = IC50 resting PBMC/IC50 cancer cell,MCF7; Table IV,3
same,Therapeutic Index = IC50 stimulated PBMC/IC50 cancer cell,MCF7; Table VII,3
same,IC50,MCF7; [5],28 µM
same,Therapeutic Index = IC50 resting PBMC/IC50 cancer cell,stimulated PBMC [1],1
same,IC50,"stimulated PBMC [2]; Example 7, Experiment 1, read-out: IC50 on Stimulated PBMC",106 µM
same,IC50,"stimulated PBMC [2]; Example 7, Experiment 2, read-out: IC50 on Stimulated PBMC",94 µM
same,IC50,"stimulated PBMC [2]; PBMC STIMULATED, Table IV, read-out: In vitro proliferation IC50",94 µM
